The record followed here is patent US8288552B2, “Dihydropyridone amidesas P2X7 modulators” (Roche Palo Alto LLC, priority 2008, dated 2012).

The target in the test is T1, P2X7 (UniProt Q99572).
T1 sequence (Q99572 1-595): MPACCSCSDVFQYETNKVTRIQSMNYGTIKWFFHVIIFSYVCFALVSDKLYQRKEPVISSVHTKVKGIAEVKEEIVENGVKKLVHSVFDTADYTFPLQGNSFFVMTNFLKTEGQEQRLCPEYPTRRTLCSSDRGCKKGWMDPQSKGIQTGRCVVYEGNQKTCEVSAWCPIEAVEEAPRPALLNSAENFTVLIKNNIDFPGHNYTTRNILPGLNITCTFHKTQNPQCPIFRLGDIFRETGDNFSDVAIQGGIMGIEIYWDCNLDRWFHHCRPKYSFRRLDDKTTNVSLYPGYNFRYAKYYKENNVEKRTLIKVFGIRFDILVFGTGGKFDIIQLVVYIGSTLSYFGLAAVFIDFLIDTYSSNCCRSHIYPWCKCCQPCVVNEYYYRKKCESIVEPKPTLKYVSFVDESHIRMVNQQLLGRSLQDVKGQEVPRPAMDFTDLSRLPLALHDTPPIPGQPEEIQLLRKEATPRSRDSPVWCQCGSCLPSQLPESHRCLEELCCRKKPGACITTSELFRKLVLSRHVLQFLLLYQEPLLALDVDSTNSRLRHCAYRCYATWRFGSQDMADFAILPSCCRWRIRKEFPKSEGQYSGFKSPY
Briefly: P2X7 pKi of Table 1. The test is classed as cell-based. Here is the method:
Intracellular Calcium Flux (FLIPR) Assay
Compound and Reagent Preparation
Stock solutions of compounds were prepared from powders as a 10 mM DMSO stock solution. These solutions were stored at RT during the two week period of these experiments to prevent freeze-thaw of the DMSO stocks. The DMSO stocks were added to the appropriate assay buffer at a concentration of 10 μM, and then diluted serially to the final concentrations that were tested. […] The aqueous solutions of compounds as well as ATP (Sigma A7699) and BzATP (Sigma B6396) were prepared fresh for each day of experiment.
1321N1 cells stably expressing the full length human P2X7 gene (1321N1-hP2X7) and HEK293 cells stably expressing the full length rat P2X7 gene (HEK293-rP2X7) were obtained from the Roche Cell Culture Facility. 1321N1-hP2X7 cells were grown in Dulbecco's Modified Eagle's Medium (DMEM) high glucose supplemented with 10% FBS and 250 μg/mL G418. HEK293-rP2X7 cells were grown in DMEM/F-12 supplemented with 10% FBS, 1 mM CaCl2, 2 mM MgCl2, 2 mM L-Glutamine and 500 μg/ml G418. Cells were split such that they never became >70% confluent.
Intracellular Calcium Flux (FLIPR)
On the day prior to the experiment, 1321N1-hP2X7 or HEK293-rP2X7 cells were released into suspension with calcium-free PBS+Versene and washed by centrifugation with calcium-free PBS to remove the Versene. Cells were resuspended in growth medium at a density of 2.5×10^5 cells/mL and seeded into black walled, clear bottom 96 well plates (50,000 cells/well) approximately 18 hr prior to intracellular calcium flux experiments.
On the day of the experiment, plates were washed with FLIPR buffer (calcium- and magnesium-free Hank's Balanced Salt Solution (HBSS) supplemented with 10 mM Hepes, 2.5 mM probenecid and 2 mM calcium chloride) using a BIO-TEK 96 channel plate washer and incubated with […] fluo-3 dye at 37° C. for one hr. The dye was then removed by plate washing and the cells were allowed to equilibrate for 20 min at room temperature with antagonist or vehicle (FLIPR buffer). Agonist (100 μM BzATP final concentration for hP2X7; 5 μM BzATP final concentration or rP2X7) was added online with the FLIPR and fluorescence measurements made at 1 sec intervals for 60 sec followed by 3 sec intervals for a further 4 min (5 min total). A final addition of 5 μM ionomycin was made and the maximal BzATP-evoked fluorescence normalized to the maximal ionomycin-evoked fluorescence.
For the compound `O=C1C[C@@H](c2ccc(F)cc2)C(C(=O)Nc2cccc(Cl)c2Cl)=CN1` [Compound 128, (S)-4-(4-Fluoro-phenyl)-6-oxo-1,4,5,6-tetrahydro-pyridine-3-carboxylic acid (2,3-dichloro-phenyl)-amide], the pKi – broadly, the negative decadic logarithm of the Ki, by convention in mol/L – is reported as 6.75.

In turn, `Cc1cc(F)c(OCCO)cc1NC(=O)C1=CN(C)C(=O)C[C@H]1c1ccc(F)cc1` [Compound 143, (S)-4-(4-Fluoro-phenyl)-1-methyl-6-oxo-1,4,5,6-tetrahydro-pyridine-3-carboxylic acid[4-fluoro-5-(2-hydroxy-ethoxy)-2-methyl-phenyl]-amide] gave a pKi of 6.535.

The compound `O=C1CC(c2ccc(F)cc2)C(C(=O)Nc2cc3c(cc2Cl)OC(F)(F)O3)=CN1` (stereo not drawn) [Compound 139, 4-(4-Fluoro-phenyl)-6-oxo-1,4,5,6-tetrahydro-pyridine-3-carboxylic acid(6-chloro-2,2-difluoro-benzo[1,3]dioxol-5-yl)-amide] showed a pKi of 5.46.

Take `Cc1cc(Cl)c(OCC(O)CO)cc1NC(=O)C1=CNC(=O)C[C@H]1c1cccc(F)c1` (stereo partly drawn) [Compound 81, (S)-4-(3-Fluoro-phenyl)-6-oxo-1,4,5,6-tetrahydro-pyridine-3-carboxylic acid[4-chloro-5-(2,3-dihydroxy-propoxy)-2-methyl-phenyl]-amide]: the pKi came to 5.76.

Turning to `COc1cc(C)c(NC(=O)C2=CNC(=O)C[C@H]2c2ccc(F)cc2)cc1OC` [Compound 42, (S)-4-(4-Fluoro-phenyl)-6-oxo-1,4,5,6-tetrahydro-pyridine-3-carboxylic acid (4,5-dimethoxy-2-methyl-phenyl)-amide], the pKi was determined as 7.993.

Compound `COc1ccc(Br)c(NC(=O)C2=CNC(=O)CC2c2cccc(F)c2)c1` (stereo not drawn) [Compound 19, 4-(3-Fluoro-phenyl)-6-oxo-1,4,5,6-tetrahydro-pyridine-3-carboxylic acid(2-bromo-5-methoxy-phenyl)-amide] yielded a pKi of 6.19.

On to `COc1cc(NC(=O)C2=CNC(=O)CC2c2ccc(F)cc2)ccc1Cl` (stereo not drawn) [Compound 10, 4-(4-Fluoro-phenyl)-6-oxo-1,4,5,6-tetrahydro-pyridine-3-carboxylic acid(4-chloro-3-methoxy-phenyl)-amide], for which the pKi is on record as 5.543.

`Cc1ccc([C@H](C)O)cc1NC(=O)C1=CNC(=O)C[C@H]1c1ccc(F)cc1` [Compound 90, (S)-4-(4-Fluoro-phenyl)-6-oxo-1,4,5,6-tetrahydro-pyridine-3-carboxylic acid[5-((S)-1-hydroxy-ethyl)-2-methyl-phenyl]-amide] returned a pKi of 7.19.

The compound `COc1cc(C)c(NC(=O)C2=CNC(=O)C[C@@H]2c2ccc(F)cc2)cc1OC` [Compound 41, (R)-4-(4-Fluoro-phenyl)-6-oxo-1,4,5,6-tetrahydro-pyridine-3-carboxylic acid (4,5-dimethoxy-2-methyl-phenyl)-amide] had a pKi of 7.225. This pKi and that of the compound before are within 0.2 log units of each other.

The compound `CCN(CC)S(=O)(=O)c1ccc(Cl)c(NC(=O)C2=CNC(=O)CC2c2cccc(F)c2)c1` (stereo not drawn) [Compound 52, 4-(3-Fluoro-phenyl)-6-oxo-1,4,5,6-tetrahydro-pyridine-3-carboxylic acid(2-chloro-5-diethylsulfamoyl-phenyl)-amide] registered a pKi of 6.02.

Take `COc1cc(C)c(C)c(NC(=O)C2=CNC(=O)C[C@H]2c2ccc(F)cc2)c1` [Compound 113, (S)-4-(4-Fluoro-phenyl)-6-oxo-1,4,5,6-tetrahydro-pyridine-3-carboxylic acid(5-methoxy-2,3-dimethyl-phenyl)-amide]: the pKi amounted to 8.035.

`COc1ccc(NC(=O)C2=CNC(=O)C[C@H]2c2ccc(F)cc2)cc1OC` [Compound 133, (S)-4-(4-Fluoro-phenyl)-6-oxo-1,4,5,6-tetrahydro-pyridine-3-carboxylic acid (3,4-dimethoxy-phenyl)-amide]: the pKi is listed as 6.04.

Compound `Cc1cc(Cl)c(OCC(=O)N(C)C)cc1NC(=O)C1=CNC(=O)C[C@H]1c1ccc(F)cc1` [Compound 130, (S)-4-(4-Fluoro-phenyl)-6-oxo-1,4,5,6-tetrahydro-pyridine-3-carboxylic acid(4-chloro-5-dimethylcarbamoyl-methoxy-2-methyl-phenyl)-amide] returned a pKi of 7.2767.

`COC[C@@H](O)COc1cc(NC(=O)C2=CNC(=O)C[C@H]2c2ccc(F)cc2)c(C)cc1Cl` [Compound 148, (S)-4-(4-Fluoro-phenyl)-6-oxo-1,4,5,6-tetrahydro-pyridine-3-carboxylic acid[4-chloro-5-((S)-2-hydroxy-3-methoxy-propoxy)-2-methyl-phenyl]-amide]: the pKi came out at 6.49.

`Cc1cc(Cl)c(OCCO)cc1NC(=O)C1=CN(C)C(=O)C[C@H]1c1ccc(F)cc1` [Compound 142, (S)-4-(4-Fluoro-phenyl)-1-methyl-6-oxo-1,4,5,6-tetrahydro-pyridine-3-carboxylic acid[4-chloro-5-(2-hydroxy-ethoxy)-2-methyl-phenyl]-amide] displayed a pKi of 6.835.

As to `Cc1cc(C)c(Br)c(NC(=O)C2=CNC(=O)C[C@H]2c2ccc(F)cc2)c1` [Compound 60, (S)-4-(4-Fluoro-phenyl)-6-oxo-1,4,5,6-tetrahydro-pyridine-3-carboxylic acid(2-bromo-3,5-dimethyl-phenyl)-amide], the pKi was 6.86.

The compound `COc1cc(C)c(NC(=O)C2=CN(CCO)C(=O)C[C@H]2c2ccc(F)cc2)cc1OC` [Compound 146, (S)-4-(4-Fluoro-phenyl)-1-(2-hydroxy-ethyl)-6-oxo-1,4,5,6-tetrahydro-pyridine-3-carboxylic acid(4,5-dimethoxy-2-methyl-phenyl)-amide] had a pKi of 7.71.

Compound `Cc1cccc(NC(=O)C2=CNC(=O)CC2c2cccc(F)c2)c1C` (stereo not drawn) [Compound 63, 4-(3-Fluoro-phenyl)-6-oxo-1,4,5,6-tetrahydro-pyridine-3-carboxylic acid(2,3-dimethyl-phenyl)-amide] displayed a pKi of 7.405.

Compound `Cc1c(NC(=O)C2=CNC(=O)C[C@H]2c2ccc(F)cc2)cccc1C(=O)N(C)C` [Compound 110, (S)-4-(4-Fluoro-phenyl)-6-oxo-1,4,5,6-tetrahydro-pyridine-3-carboxylic acid(3-dimethylcarbamoyl-2-methyl-phenyl)-amide] showed a pKi of 5.43.

As to `COc1cc(NC(=O)C2=CNC(=O)CC2c2cccc(F)c2)c(Br)cc1Cl` (stereo not drawn) [Compound 9, 4-(3-Fluoro-phenyl)-6-oxo-1,4,5,6-tetrahydro-pyridine-3-carboxylic acid(2-bromo-4-chloro-5-methoxy-phenyl)-amide], the pKi amounted to 6.766.

As to `COc1cc(NC(=O)C2=CNC(=O)CC2c2cccc(F)c2)c(Br)cc1C` (stereo not drawn) [Compound 5, 4-(3-Fluoro-phenyl)-6-oxo-1,4,5,6-tetrahydro-pyridine-3-carboxylic acid(2-bromo-5-methoxy-4-methyl-phenyl)-amide], the pKi was found to be 6.726.

Regarding `O=C1CC(c2cccc(F)c2)C(C(=O)Nc2cccc3c2CCCC3)=CN1` (stereo not drawn) [Compound 53, 4-(3-Fluoro-phenyl)-6-oxo-1,4,5,6-tetrahydro-pyridine-3-carboxylic acid(5,6,7,8-tetrahydro-naphthalen-1-yl)-amide], the pKi stood at 6.83.

Compound `COc1cc(C)c(NC(=O)C2=CNC(=O)CC2c2ccc(Cl)cc2)cc1OC` (stereo not drawn) [Compound 122, 4-(4-Chloro-phenyl)-6-oxo-1,4,5,6-tetrahydro-pyridine-3-carboxylic acid(4,5-dimethoxy-2-methyl-phenyl)-amide] yielded a pKi of 6.465.

Take `Cc1cc(C)c(Br)c(NC(=O)C2=CNC(=O)CC2c2ccc(F)cc2)c1` (stereo not drawn) [Compound 49, 4-(4-Fluoro-phenyl)-6-oxo-1,4,5,6-tetrahydro-pyridine-3-carboxylic acid(2-bromo-3,5-dimethyl-phenyl)-amide]: the pKi was determined as 7.48.
